Measured values as given in patent publication US20230303547A1, “N-CYANOPYRROLIDINES WITH ACTIVITY AS USP30 INHIBITORS” (MISSION THERAPEUTICS LIMITED, priority 2020, published 2023).
Converted amounts (≈) assume the structure as drawn.

Assays:
[1] = Log D; type: physicochemical; conditions: pH 7.4; read-out: Log D measured at pH 7.4
Text: log D: distribution co-efficient; lipophilicity measurement.

[2] = target: UCHL1 (Homo sapiens (Human), UniProt P09936); test: UCHL1 DUB IC50; type: biochemical
[3] = Turbidimetric solubility; type: physicochemical; conditions: aqueous buffer, kinetic from dmso stock
Text: The solubility of a compound is an important factor in achieving a desired concentration of drug in systemic circulation for the anticipated pharmacological response. Low aqueous solubility is a problem encountered with formulation development of new chemical entities and to be absorbed a drug must be present in the form of solution at the site of absorption. The kinetic solubility of a compound may be measured using a turbidimetric solubility assay, the data from which may also be used in conjunction with Caco-2 permeability data to predict dose dependent human intestinal absorption.
Turbidimetric solubility: Test compound solution prepared in DMSO diluted into aqueous buffer. Turbidimetry is used as the end-point by measuring absorbance at 620 nm.

[4] = target: Cathepsin V (Homo sapiens (Human), UniProt O60911); test: Cathepsin V IC50; type: biochemical
[5] = PK mouse 10 mg/kg po; type: in vivo; conditions: for Unbound plasma Cmax/TOM20-Ub cell potency: 10 mg/kg po dose - mouse; for Oral F: mouse, 10 mg/kg
Text: Oral F: Oral bioavailability.

[6] = Plasma free fraction by equilibrium dialysis; type: in vitro ADME; conditions: mouse plasma; read-out: Binding Mouse Plasma fu,p
Text: Plasma fu,p: The free fraction of a compound in plasma preparation determined by in vitro equilibrium dialysis.

[7] = target: Cathepsin B (Homo sapiens (Human), UniProt P07858); test: Cathepsin B IC50; type: biochemical
[8] = target: Cathepsin L (Homo sapiens (Human), UniProt P07711); test: Cathepsin L IC50; type: biochemical
[9] = Hepatocyte Cl mouse; type: in vitro ADME; conditions: mouse hepatocytes
Procedure: Hep Cl mouse: in vitro hepatocyte clearance in mouse cells.
Clu: in vitro clearance. Clu as defined here is the scaled clearance, in turn calculated from the intrinsic clearance. The intrinsic clearance is the predicted clearance due to hepatic metabolic reactions, determined from incubation of a compound in a hepatocyte preparation.

[10] = Mouse plasma stability; type: in vitro ADME; conditions: read-out: Stability Mouse plasma t½
Text: Other parameters that may be measured using standard assays that are indicative of a compound’s exposure profile include, for example plasma stability (half-life measurement), blood AUC, Cmax, Cmin and Tmax values.

[11] = target: Cathepsin K (Homo sapiens (Human), UniProt P43235); test: Cathepsin K IC50; type: biochemical
[12] = test system: TOM20 ubiquitylation; test: TOM20-ubiquitylation assay; type: cell-based, human
Text: (§1) USP30 is a transmembrane protein located in the outer membrane of mitochondria, which are energy-producing organelles present inside cells. […] The USP30 cellular western blot (WB) assay described herein aims to test the activity of compounds against USP30 in cells using an irreversible activity probe to monitor USP30 activity. Analogously to the cellular western blot assay, target engagement assessment (ex vivo) may be carried out in either brain or kidney tissue samples from compound-dosed animals. To extend target binding knowledge to downstream pharmacodynamics, assessment of TOM20 (an outer mitochondrial membrane protein) ubiquitylation may be made.
Human cell lines can be challenged with mitochondrial depolarizing agents (ionophores (eg. CCCP, valinomycin), mitochondrial complex inhibitors (oligomycin, antimycin A)) to induce ubiquitylation of TOM20, which is then further promoted in the presence of USP30 inhibitors. TOM20 ubiquitylation is subsequently assessed through western blotting of the cell lysates, with TOM20 ubiquitylation adduct detection possible due to an 8 kDa molecule weight increase for each molecule of ubiquitin added, resulting in laddering of a TOM20 immunoreactive band. TOM20-ubiquitylation levels can be quantified using chemiluminescence densitometry of laddered immunoreactive bands.

[13] = PK mouse 2 mg/kg iv; type: in vivo; conditions: for Kp uu: brain and plasma (unbound), 2 mg/kg IV dose - mouse; for clearance: plasma, mouse, 2 mg/kg iv, read-out: Cl plasma
Text: Cl in vivo clearance: Pharmacokinetic measurement of the volume of plasma (or any matrix) from which a substance is completely removed per unit time.
Kpuu is the ratio of unbound drug in brain to unbound drug in plasma and may be indicative of potential for treating peripheral and/or CNS indications.

[14] = target: Cathepsin S (Homo sapiens (Human), UniProt P25774); test: Cathepsin S IC50; type: biochemical
[15] = Brain homogenate free fraction by equilibrium dialysis; type: in vitro ADME; conditions: mouse brain homogenate; read-out: Binding Mouse Brain fu,br
Text: Brain fu,br: The free fraction of a compound in brain homogenate preparation determined by in vitro equilibrium dialysis.

[16] = target: Endogenous USP30 (Homo sapiens (Human), UniProt Q70CQ3); test: USP30 endogenous cellular target engagement assay (Cell TE WB); type: cell-based; conditions: Hela cells stably overexpressing YFP-Parkin, 1 hour
Text: as §1
Hela cells stably overexpressing YFP-Parkin were seeded into 6 well dishes. Once adhered, cells were treated with appropriate concentrations of test compounds or vehicle control for 1 hour at 37° C., 5% CO2. […] USP30 was detected using an anti-USP30 Sheep S746D antibody (MRC PPU Reagents and Services) and a rabbit anti sheep secondary IgG (H+L) horseradish peroxidase conjugated (Thermo #31480) and visualised using ECL reagent (GE #RPN2109) on a GE LAS4000 imager. Target engagement was measured by quantitation of the bands corresponding to USP30 and USP30 bound to the Ub-VME probe and expression of this proportion compared to vehicle treated control.

Endogenous USP30, sequence (Q70CQ3 whole entry): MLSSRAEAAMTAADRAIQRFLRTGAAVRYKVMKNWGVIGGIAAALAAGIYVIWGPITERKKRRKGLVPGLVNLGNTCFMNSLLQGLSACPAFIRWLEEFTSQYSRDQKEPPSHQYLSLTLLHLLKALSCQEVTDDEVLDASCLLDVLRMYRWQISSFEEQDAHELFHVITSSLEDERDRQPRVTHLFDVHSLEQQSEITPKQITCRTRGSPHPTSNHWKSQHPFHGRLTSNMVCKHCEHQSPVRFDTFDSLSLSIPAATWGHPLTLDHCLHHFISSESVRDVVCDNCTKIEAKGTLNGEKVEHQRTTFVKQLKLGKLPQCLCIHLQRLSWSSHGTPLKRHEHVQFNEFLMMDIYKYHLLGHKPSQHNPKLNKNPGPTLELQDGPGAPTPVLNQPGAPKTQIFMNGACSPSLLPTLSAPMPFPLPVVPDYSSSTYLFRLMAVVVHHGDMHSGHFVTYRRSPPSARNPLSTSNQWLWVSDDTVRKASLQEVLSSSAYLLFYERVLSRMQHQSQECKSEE
Cathepsin L, sequence (P07711 114-333, species assumed): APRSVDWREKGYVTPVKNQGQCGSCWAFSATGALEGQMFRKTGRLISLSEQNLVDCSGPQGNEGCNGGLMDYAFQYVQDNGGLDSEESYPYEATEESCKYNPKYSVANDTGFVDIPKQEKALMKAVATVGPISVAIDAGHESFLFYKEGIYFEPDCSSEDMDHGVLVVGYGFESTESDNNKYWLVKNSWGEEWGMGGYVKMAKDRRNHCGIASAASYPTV
Cathepsin S, sequence (P25774 115-331, species assumed): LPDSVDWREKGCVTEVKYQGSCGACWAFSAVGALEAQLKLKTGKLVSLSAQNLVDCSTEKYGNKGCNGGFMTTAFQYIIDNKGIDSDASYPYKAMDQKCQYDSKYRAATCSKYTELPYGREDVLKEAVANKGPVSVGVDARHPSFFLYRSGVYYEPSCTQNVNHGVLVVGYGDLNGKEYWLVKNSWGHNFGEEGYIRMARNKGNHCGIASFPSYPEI
Cathepsin K, sequence (P43235 115-329, species assumed): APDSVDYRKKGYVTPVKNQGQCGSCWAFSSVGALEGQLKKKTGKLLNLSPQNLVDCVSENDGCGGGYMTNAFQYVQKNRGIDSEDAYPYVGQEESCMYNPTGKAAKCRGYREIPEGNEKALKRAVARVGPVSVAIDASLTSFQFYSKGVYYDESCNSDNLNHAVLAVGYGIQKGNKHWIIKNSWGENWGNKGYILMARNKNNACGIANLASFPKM
UCHL1, sequence (P09936 whole entry, species assumed): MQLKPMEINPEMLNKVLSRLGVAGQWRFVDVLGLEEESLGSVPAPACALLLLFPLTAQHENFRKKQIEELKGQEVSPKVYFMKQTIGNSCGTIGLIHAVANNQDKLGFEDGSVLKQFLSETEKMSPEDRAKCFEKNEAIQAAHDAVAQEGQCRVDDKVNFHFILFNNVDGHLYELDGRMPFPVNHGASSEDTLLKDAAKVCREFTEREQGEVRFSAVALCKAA
Cathepsin V, sequence (O60911 114-334, species assumed): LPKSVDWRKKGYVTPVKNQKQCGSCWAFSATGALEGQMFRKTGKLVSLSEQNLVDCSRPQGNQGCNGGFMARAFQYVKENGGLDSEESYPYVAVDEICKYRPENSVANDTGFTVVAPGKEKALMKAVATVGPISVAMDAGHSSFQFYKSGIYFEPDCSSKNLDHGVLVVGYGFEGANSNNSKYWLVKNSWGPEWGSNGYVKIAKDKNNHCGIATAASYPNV

SMILES	logD [1]	IC50 [2]	solubility [3]	IC50 [4]	Unbound plasma Cmax/TOM20-Ub cell potency [5]	Oral F [5]	fraction unbound [6]	IC50 [7]	IC50 [8]	Hepatocyte Cl mouse Scaled Clu [9]	half-life [10]	IC50 [11]	TOM20-Ub 1.5-fold gain, Antimycin A/oligomycin mitophagy trigger EC1.5x [12]	Kp uu [13]	clearance [13]	IC50 [14]	fraction unbound [15]	EC50 [16]
C[C@@H]1C[C@@H](NC(=O)c2ncc(-c3cc(C#N)ccc3OC3CC3)o2)CN1C#N [Example 1, 5-(5-cyano-2-cyclopropoxyphenyl)-N-((3R,5R)-1-cyano-5-methylpyrrolidin-3-yl)oxazole-2-carboxamide]	2.5	> 300 µM	65 µM (≈ 24.5 µg/mL)	30.9 µM	45	37%	0.09	107 µM	9.9 µM	117 mL/min/kg	> 2 h	10.5 µM	0.006 µM	0.02	41 mL/min/kg	54.4 µM	0.06	0.002 µM
COC[C@@H]1C[C@@H](NC(=O)c2ncc(-c3cc(C#N)ccc3OC3CC3)o2)CN1C#N [Example 2, 5-(5-cyano-2-cyclopropoxyphenyl)-N-((3R,5S)-1-cyano-5-(methoxymethyl)pyrrolidin-3-yl)oxazole-2-carboxamide]	2.2	> 300 µM	> 100 µM	60.6 µM	140	47%	0.07	> 300 µM	23.6 µM	105 mL/min/kg	> 2 h	18.9 µM	0.007 µM	0.01	20 mL/min/kg	91.2 µM	0.2	0.003 µM
